Data as given in ChEMBL document CHEMBL1137558, “Synthesis and biological evaluation of new 2-arylcarbonyl-3-trifluoromethylquinoxaline 1,4-di-N-oxide derivatives and their reduced analogues” (2007).

Assays:
[1] = Anticancer activity against ovarian cancer cells; type: functional; conditions: Homo sapiens, Cancer cell lines
[2] = tested on: MOLT-4; test: Anticancer activity against MOLT4 cells; type: functional; conditions: Homo sapiens
[3] = Anticancer activity against nonsmall lung cancer cells; type: functional; conditions: Homo sapiens, Cancer cell lines
[4] = Anticancer activity against CNS cancer cells; type: functional; conditions: Homo sapiens, Cancer cell lines
[5] = Anticancer activity against colon cancer cells; type: functional; conditions: Homo sapiens, Cancer cell lines
[6] = Anticancer activity against melanoma cells; type: functional; conditions: Homo sapiens, Melanoma cell
[7] = Anticancer activity against leukemia cells; type: functional; conditions: Homo sapiens, Leukemia cell
[8] = Anticancer activity against renal cancer cells; type: functional; conditions: Homo sapiens, Cancer cell lines
[9] = tested on: K562; test: Anticancer activity against K562 cells; type: functional; conditions: Homo sapiens
[10] = Anticancer activity against prostate cancer cells; type: functional; conditions: Homo sapiens, Cancer cell lines
[11] = Anticancer activity against human NCI60 cells; type: functional; conditions: for CC50: read-out: LC50 (the source's name)
[12] = Anticancer activity against breast cancer cells; type: functional; conditions: Homo sapiens, Cancer cell lines
[13] = tested on: CCRF-CEM; test: Anticancer activity against CCRF-CEM cells; type: functional; conditions: Homo sapiens
[14] = tested on: SR; test: Anticancer activity against SR cells; type: functional; conditions: Homo sapiens
[15] = tested on: HL-60; test: Anticancer activity against HL60 cells; type: functional; conditions: Homo sapiens
[16] = tested on: SF-268; test: Growth inhibition of SF268 cells at 100 uM after 48 hrs; type: functional, Homo sapiens; design: scale not given: the % may be the effect or the level left
[17] = tested on: MCF7; test: Growth inhibition of MCF7 cells at 100 uM after 48 hrs; type: functional, Homo sapiens; design: scale not given: the % may be the effect or the level left
[18] = tested on: NCI-H460; test: Growth inhibition of NCI-H460 cells at 100 uM after 48 hrs; type: functional, Homo sapiens; design: scale not given: the % may be the effect or the level left

Row | Compound | GI50 [1] [nM] | GI50 [2] [nM] | GI50 [3] [nM] | GI50 [4] [nM] | GI50 [5] [nM] | GI50 [6] [nM] | GI50 [7] [nM] | GI50 [8] [nM] | GI50 [9] [nM] | GI50 [10] [nM] | GI50 [11] [nM] | TGI [11] [nM] | CC50 [11] [nM] | GI50 [12] [nM] | GI50 [13] [nM] | GI50 [14] [nM] | GI50 [15] [nM] | Activity [16] [%] | Activity [17] [%] | Activity [18] [%]
1 | O=C(c1cccs1)c1c(C(F)(F)F)[n+]([O-])c2cc(Cl)c(Cl)cc2[n+]1[O-] | 1160 | < 10 | 2040 | 670 | 590 | 940 | 20 | 1600 | < 10 | 790 | 740 | 3020 | 11000 | 790 | < 10 | < 10 | – | – | – | –
2 | O=C(c1cccs1)c1c(C(F)(F)F)[n+]([O-])c2cc(C(F)(F)F)ccc2[n+]1[O-] | 200 | 20 | 300 | 180 | 150 | 330 | 30 | 240 | – | 150 | 180 | 470 | 1480 | 180 | 70 | 20 | < 10 | – | – | –
3 | COc1ccc2c(c1)[n+]([O-])c(C(=O)c1ccc3ccccc3c1)c(C(F)(F)F)[n+]2[O-] | – | – | 800 | – | – | – | – | – | – | – | – | – | – | – | – | – | – | <32 | <32 | <32
4 | O=C(c1ccco1)c1c(C(F)(F)F)[n+]([O-])c2ccc(F)cc2[n+]1[O-] | 2030 | – | 3130 | 2350 | 1060 | 1560 | 300 | 2410 | – | 2600 | 1620 | 4270 | 15800 | 1330 | – | – | – | 82 | 72 | –
5 | O=C(c1ccc2ccccc2c1)c1c(C(F)(F)F)[n+]([O-])c2ccc(Cl)cc2[n+]1[O-] | 1200 | – | 1510 | 1470 | 1290 | 1230 | 650 | 1380 | – | 1480 | 1230 | 2630 | 5500 | 1150 | – | – | – | – | – | –
6 | O=C(c1ccco1)c1c(C(F)(F)F)[n+]([O-])c2cc(C(F)(F)F)ccc2[n+]1[O-] | 650 | – | 480 | 810 | 280 | 860 | 130 | 490 | – | 190 | 470 | 1200 | 3890 | 480 | – | – | – | – | – | –
7 | O=C(c1cccs1)c1c(C(F)(F)F)[n+]([O-])c2ccc(F)cc2[n+]1[O-] | 1170 | – | 1680 | 1630 | 920 | 1510 | 270 | 1650 | – | 1510 | 1200 | 2880 | 9330 | 1190 | – | – | – | – | – | –
8 | Cc1ccc2c(c1)[n+]([O-])c(C(=O)c1ccco1)c(C(F)(F)F)[n+]2[O-] | 850 | – | 470 | 740 | 1170 | 880 | 260 | 580 | – | 240 | 660 | 3470 | 17800 | 660 | – | – | – | – | – | –
